What was measured:
hCA IX = biological target: T1, hCA IX (Homo sapiens, UniProt Q16790); assay: stopped-flow CO2 hydrase assay; type: biochemical
T1 construct: gene CA9
Excerpt: stopped-flow CO2 hydrase assay on hCA IX

hCA VI = biological target: T2, hCA VI (Homo sapiens, UniProt P23280); assay: stopped-flow CO2 hydrase assay; type: biochemical
T2 construct: gene CA6; secreted isoform; in-house recombinant protein; construct not described here
Excerpt: stopped-flow CO2 hydrase assay on hCA VI

hCA I = biological target: T3, hCA I (Homo sapiens, UniProt P00915); assay: stopped-flow CO2 hydrase assay; type: biochemical
T3 construct: gene CA1; recombinant from plasmid pACA/hCA I, E. coli BL21 (DE3)
T3 sequence (P00915 2-261): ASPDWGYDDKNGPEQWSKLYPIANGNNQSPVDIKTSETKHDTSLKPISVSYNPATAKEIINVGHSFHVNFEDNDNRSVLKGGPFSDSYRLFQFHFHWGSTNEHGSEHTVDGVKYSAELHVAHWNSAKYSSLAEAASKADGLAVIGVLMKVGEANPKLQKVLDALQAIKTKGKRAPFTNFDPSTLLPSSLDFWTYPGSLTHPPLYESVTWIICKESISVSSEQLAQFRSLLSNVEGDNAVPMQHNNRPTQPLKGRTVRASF
Excerpt: stopped-flow CO2 hydrase assay on hCA I

[1] = stopped-flow CO2 hydrase assay; type: biochemical, Homo sapiens; conditions: read-out: KI (μM) ^a / hCA I
Excerpt: (§1) stopped-flow CO2 hydrase assay on hCA II

hCA VII = biological target: T4, hCA VII (Homo sapiens, UniProt P43166); assay: stopped-flow CO2 hydrase assay; type: biochemical
T4 construct: gene CA7; in-house recombinant protein; construct not described here
T4 sequence (P43166 whole entry): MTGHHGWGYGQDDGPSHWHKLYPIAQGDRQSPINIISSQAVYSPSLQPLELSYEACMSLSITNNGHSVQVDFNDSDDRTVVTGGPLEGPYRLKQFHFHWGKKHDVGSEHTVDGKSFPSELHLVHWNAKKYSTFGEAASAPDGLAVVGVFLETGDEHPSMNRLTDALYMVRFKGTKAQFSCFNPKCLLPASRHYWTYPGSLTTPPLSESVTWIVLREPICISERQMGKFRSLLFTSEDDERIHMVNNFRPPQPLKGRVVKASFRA
Excerpt: stopped-flow CO2 hydrase assay on hCA VII

hCA II = biological target: T5, hCA II (Homo sapiens, UniProt P00918); assay: stopped-flow CO2 hydrase assay; type: biochemical
T5 construct: gene CA2; recombinant from plasmid pACA/hCA II, E. coli BL21 (DE3)
Excerpt: as §1

T2 sequence (P23280 18-308): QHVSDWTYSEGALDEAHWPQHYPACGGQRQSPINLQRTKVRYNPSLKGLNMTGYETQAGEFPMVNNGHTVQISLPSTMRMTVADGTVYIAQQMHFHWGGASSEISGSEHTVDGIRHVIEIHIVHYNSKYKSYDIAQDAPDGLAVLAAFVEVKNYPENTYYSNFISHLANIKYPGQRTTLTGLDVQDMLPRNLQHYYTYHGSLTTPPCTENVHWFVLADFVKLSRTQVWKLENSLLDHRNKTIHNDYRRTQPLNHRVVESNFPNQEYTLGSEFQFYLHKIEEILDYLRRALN

| SMILES | Ki (hCA IX) | Ki (hCA VI) | Ki (hCA I) | Ki [1] | Ki (hCA VII) | Ki (hCA II) |
| --- | --- | --- | --- | --- | --- | --- |
| O=C1CN(N2C(=O)c3ccc([N+](=O)[O-])cc3C2=O)C(=O)N1 [3b, Potassium 3-(5-nitro-1,3-dioxoisoindolin-2-yl)-2,5-dioxoimidazolidin-1-ide] | 0.488 µM | 0.701 µM | > 100 µM |  | 0.163 µM | 8.99 µM |
| O=C1CN(NC(=O)c2cc([N+](=O)[O-])ccc2C(=O)O)C(=O)N1 [compound 5, 2-((2,4-Dioxoimidazolidin-1-yl)carbamoyl)-4-nitrobenzoic acid] | 4.06 µM | 10.5 µM | > 100 µM |  | 13.9 µM | 58.6 µM |
| O=C1CN(N2C(=O)c3ccccc3C2=O)C(=O)N1 [3a, Potassium 3-(1,3-dioxoisoindolin-2-yl)-2,5-dioxoimidazolidin-1-ide] | 0.331 µM | 0.405 µM | > 100 µM |  | 0.075 µM | 6.94 µM |

Results, then the compound that gave them:

| Ki (hCA IX) | Ki (hCA VI) | Ki (hCA I) | Ki [1] | Ki (hCA VII) | Ki (hCA II) | SMILES |
| --- | --- | --- | --- | --- | --- | --- |
| 3.73 µM | 57.7 µM | > 100 µM | > 100 µM | 33.7 µM |  | O=C1CN(N2C(=O)c3ccccc3C2=O)C(=O)N1Cc1ccccc1 [6a, 2-(3-Benzyl-2,4-dioxoimidazolidin-1-yl)isoindoline-1,3-dione] |
| 4.82 µM | 48.5 µM | > 100 µM | > 100 µM | 59.1 µM |  | N#Cc1ccc(CN2C(=O)CN(N3C(=O)c4ccccc4C3=O)C2=O)cc1 [6e, 4-((3-(1,3-Dioxoisoindolin-2-yl)-2,5-dioxoimidazolidin-1-yl)methyl)benzonitrile] |
| 4.58 µM | 49.8 µM | > 100 µM | > 100 µM | 26.3 µM |  | O=C1CN(N2C(=O)c3ccc([N+](=O)[O-])cc3C2=O)C(=O)N1Cc1ccc([N+](=O)[O-])cc1 [6d, 5-Nitro-2-(3-(4-nitrobenzyl)-2,4-dioxoimidazolidin-1-yl)isoindoline-1,3-dione] |
| 5.68 µM | 50.2 µM | > 100 µM | > 100 µM | 37.6 µM |  | O=C1CN(N2C(=O)c3ccccc3C2=O)C(=O)N1Cc1ccc([N+](=O)[O-])cc1 [6c, 2-(3-(4-Nitrobenzyl)-2,4-dioxoimidazolidin-1-yl)isoindoline-1,3-dione] |
| 2.73 µM | 40.2 µM | > 100 µM | > 100 µM | 45.9 µM |  | O=C1CN(N2C(=O)c3ccc([N+](=O)[O-])cc3C2=O)C(=O)N1Cc1ccccc1 [6b, 2-(3-Benzyl-2,4-dioxoimidazolidin-1-yl)-5-nitroisoindoline-1,3-dione] |
| 6.49 µM | 64.3 µM | > 100 µM | > 100 µM | 50.5 µM |  | N#Cc1ccc(CN2C(=O)CN(N3C(=O)c4ccc([N+](=O)[O-])cc4C3=O)C2=O)cc1 [6f, 4-((3-(5-Nitro-1,3-dioxoisoindolin-2-yl)-2,5-dioxoimidazolidin-1-yl)methyl)benzonitrile] |

Reference: article PMC11018007, “Synthesis, carbonic anhydrase inhibition studies and modelling investigations of phthalimide–hydantoin hybrids” (Journal of Enzyme Inhibition and Medicinal Chemistry, 2024)
